# Values of other authors as cited in patent US5767071A, “Sevenmer cyclic peptide inhibitors of diseases involving αv β3” (IXSYS Incorporated, priority 1995, dated 1998).
# Legend:
# [1] = system: angiogenesis
# [2] = biological target: integrin αv β3 (Homo sapiens, UniProt P05106+P06756); conditions: binding and cell adhesion assays
# [3] = system: chicken embryo tumor model
# integrin αv β3, sequence (P06756 31-889 limits assumed): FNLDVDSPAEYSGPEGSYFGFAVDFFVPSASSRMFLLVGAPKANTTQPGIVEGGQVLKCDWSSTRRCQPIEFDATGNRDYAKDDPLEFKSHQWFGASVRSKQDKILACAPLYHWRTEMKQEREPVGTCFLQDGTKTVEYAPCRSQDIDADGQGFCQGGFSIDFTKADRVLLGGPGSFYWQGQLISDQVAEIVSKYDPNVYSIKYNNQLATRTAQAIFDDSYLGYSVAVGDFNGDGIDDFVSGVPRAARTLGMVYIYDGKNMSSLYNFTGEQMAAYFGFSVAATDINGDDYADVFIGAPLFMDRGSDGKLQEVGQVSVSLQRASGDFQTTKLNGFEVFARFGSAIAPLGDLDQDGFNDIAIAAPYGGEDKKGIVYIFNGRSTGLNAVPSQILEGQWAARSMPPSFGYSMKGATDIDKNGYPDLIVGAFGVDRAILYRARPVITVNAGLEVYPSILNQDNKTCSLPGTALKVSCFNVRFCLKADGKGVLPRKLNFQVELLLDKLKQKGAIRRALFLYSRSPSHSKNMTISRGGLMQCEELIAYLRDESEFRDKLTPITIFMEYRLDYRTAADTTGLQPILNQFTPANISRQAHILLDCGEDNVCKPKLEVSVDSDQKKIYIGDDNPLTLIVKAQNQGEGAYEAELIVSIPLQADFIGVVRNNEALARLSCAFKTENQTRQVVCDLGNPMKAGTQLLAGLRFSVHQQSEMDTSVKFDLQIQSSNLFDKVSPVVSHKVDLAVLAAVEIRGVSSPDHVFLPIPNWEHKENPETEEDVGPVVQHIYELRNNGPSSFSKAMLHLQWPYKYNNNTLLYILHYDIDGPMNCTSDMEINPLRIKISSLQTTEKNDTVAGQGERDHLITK
# integrin αv β3, sequence (P06756 891-1048 limits assumed): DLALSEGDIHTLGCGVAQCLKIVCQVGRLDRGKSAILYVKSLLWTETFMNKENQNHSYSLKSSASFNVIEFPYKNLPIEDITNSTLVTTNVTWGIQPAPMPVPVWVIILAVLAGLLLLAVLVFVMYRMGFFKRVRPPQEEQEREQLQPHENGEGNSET
# integrin αv β3, sequence (P05106 27-788): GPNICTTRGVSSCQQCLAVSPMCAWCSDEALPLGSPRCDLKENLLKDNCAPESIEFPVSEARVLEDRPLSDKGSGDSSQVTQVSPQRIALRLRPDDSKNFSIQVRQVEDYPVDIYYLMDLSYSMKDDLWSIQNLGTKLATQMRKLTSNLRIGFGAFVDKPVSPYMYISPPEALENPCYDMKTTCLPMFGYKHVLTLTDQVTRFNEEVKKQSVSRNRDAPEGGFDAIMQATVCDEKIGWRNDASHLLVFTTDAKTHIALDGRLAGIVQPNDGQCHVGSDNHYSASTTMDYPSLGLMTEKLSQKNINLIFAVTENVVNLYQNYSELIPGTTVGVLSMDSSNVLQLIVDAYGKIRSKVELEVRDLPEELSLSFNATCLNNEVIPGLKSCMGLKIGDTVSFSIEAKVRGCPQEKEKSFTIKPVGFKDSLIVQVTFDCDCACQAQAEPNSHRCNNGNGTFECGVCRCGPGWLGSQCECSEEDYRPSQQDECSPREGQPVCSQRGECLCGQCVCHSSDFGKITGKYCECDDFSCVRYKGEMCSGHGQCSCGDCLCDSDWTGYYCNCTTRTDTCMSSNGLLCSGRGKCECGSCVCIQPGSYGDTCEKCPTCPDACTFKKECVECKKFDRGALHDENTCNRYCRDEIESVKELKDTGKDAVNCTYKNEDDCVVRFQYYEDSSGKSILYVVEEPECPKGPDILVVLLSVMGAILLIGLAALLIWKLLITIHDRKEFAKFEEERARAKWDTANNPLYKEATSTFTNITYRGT
compound,measurement,setting,value
Gly-Arg-Gly-Asp-Ser (GRGDS),inhibition of angiogenesis in vitro,[1],inhibits angiogenesis in vitro
ACPSRLDSPCG [RLD peptide from a literature phage library (Koivunen et al.)],activity compared with an RGD peptide,[2],100-1000 fold lower
same,selectivity for the integrin αv β3,[2],only partially selective
CC(C)[C@@H]1NC(=O)[C@@H](Cc2ccccc2)NC(=O)[C@H](CC(=O)O)NC(=O)CNC(=O)[C@H](CCCN=C(N)N)NC1=O [cyclo-RGDfv],inhibition of angiogenesis / neovascularization,[3],inhibit the neovascularization process
